In ChEMBL document CHEMBL5033996, “Design, Synthesis, and Bioactivity Evaluation of Dual-Target Inhibitors of Tubulin and Src Kinase Guided by Crystal Structure” (J Med Chem, 2021) one finds IC50 data, which are given here for 20 compounds.

What all share (assay type): functional, cell-based
In one test the test system is SK-OV-3. Description: Antiproliferative activity against human SK-OV-3 cells assessed as inhibition of cell proliferation measured after 72 hrs by MTT assay. As to conditions: SK-OV-3, 72 h. For orientation: Tetrazolium assays rely on reduction of a dye to a coloured formazan, in cell work by metabolically active cells.
Another test relates to Ramos. Description: Antiproliferative activity against human Ramos cells assessed as inhibition of cell proliferation measured after 72 hrs by MTT assay.
For another test, the system named is K562. Description: Antiproliferative activity against human K562 cells assessed as inhibition of cell proliferation measured after 72 hrs by MTT assay. As to conditions: K562, 72 h.

Structures are written as SMILES.

Take `CC(=O)N1CCN(CCOc2ccc(-c3ccc(CC(=O)NCc4ccccc4)nc3)cc2)CC1`: the IC50 (commonly the midpoint of a concentration-inhibition curve) came out at 4 nM with SK-OV-3, 7.3 nM with Ramos and 14.4 nM in the test with K562.
On the same counts, the results for `O=C(Cc1ccc(-c2ccc(OCCCCN3CC4CCC(C3)O4)cc2)cn1)NCc1ccccc1` are 21.8 nM, 17.3 nM and 40.5 nM.
On the same counts, the results for `O=C(Cc1ccc(-c2ccc(OCCCCN3C[C@@H]4C[C@H]3CO4)cc2)cn1)NCc1ccccc1` are 37 nM, 25 nM and 53.2 nM.
On the same counts, the results for `O=C(Cc1ccc(-c2ccc(OCCN3CCC4(CC3)OCCO4)cc2)cn1)NCc1ccccc1` are 6.7 nM, 23.8 nM and 16.5 nM.
For the compound `O=C(Cc1ccc(-c2ccc(OCCN3CC4CCC(C3)O4)cc2)cn1)NCc1ccccc1`, the IC50 with SK-OV-3 was found to be 3.2 nM; in the test with Ramos, 3.1 nM; with K562, 6.2 nM.
On the same counts, the results for `O=C(Cc1ccc(-c2ccc(OCCCCN3CCOCC3)cc2)cn1)NCc1ccccc1` are 10.4 nM, 43.5 nM and 29.6 nM.
For the compound `O=C(Cc1ccc(-c2ccc(OCCN3CC4CC4C3)cc2)cn1)NCc1ccccc1` (stereo not given), the values for the IC50 in the test with SK-OV-3, with Ramos and in the test with K562 were 9.1 nM, 19.6 nM and 29.2 nM, respectively.
On the same counts, the results for `O=C(Cc1ccc(-c2ccc(OCCN3CCN(S(=O)(=O)C4CC4)CC3)cc2)cn1)NCc1ccccc1` are 2.4 nM, 4.1 nM and 5.8 nM.
`O=C(Cc1ccc(-c2ccc(OCCN3C[C@@H]4C[C@H]3CO4)cc2)cn1)NCc1ccccc1`: the figures for the IC50 with SK-OV-3, with Ramos and in the test with K562 were 19.5 nM, 25.8 nM and 16.2 nM, respectively.
For the compound `O=C(Cc1ccc(-c2ccc(OCCCN3C[C@@H]4C[C@H]3CO4)cc2)cn1)NCc1ccccc1`, the IC50 in the test with SK-OV-3 was 80.2 nM; with Ramos, above 100 nM; with K562, above 100 nM.
For the compound `O=C(Cc1ccc(-c2ccc(OCCN3CCN(C(=O)C4CC4(F)F)CC3)cc2)cn1)NCc1ccccc1` (stereo not given), the values for the IC50 with SK-OV-3, in the test with Ramos and with K562 were 16.8 nM, 48.1 nM and 53.5 nM, respectively.
On the same counts, the results for `COC1CCN(CCOc2ccc(-c3ccc(CC(=O)NCc4ccccc4)nc3)cc2)CC1` are 8.1 nM, 15.8 nM and 13 nM.
Take `CC(C)(C)OC(=O)N1CCN(CCOc2ccc(-c3ccc(CC(=O)NCc4ccccc4)nc3)cc2)CC1`: the 50% inhibitory concentration (IC50) in the test with SK-OV-3 was 53.3 nM; with Ramos, 15.9 nM; with K562 it was above 100 nM.
On the same counts, the results for `O=C(Cc1ccc(-c2ccc(OCCN3CCC4(CC3)CC4)cc2)cn1)NCc1ccccc1` are 97.5 nM, above 100 nM and 34.1 nM.
On the same counts, the results for `O=C(Cc1ccc(-c2ccc(OCCN3CC4CCCCC4C3)cc2)cn1)NCc1ccccc1` (stereo not given) are 74.9 nM, 19.7 nM and 37.9 nM.
On the same counts, the results for `CC1(C)C2CN(CCOc3ccc(-c4ccc(CC(=O)NCc5ccccc5)nc4)cc3)CC21` (stereo not given) are 165 nM, 64.4 nM and 41.5 nM.
As to `CCN1CCN(CCOc2ccc(-c3ccc(CC(=O)NCc4ccccc4)nc3)cc2)CC1`, the IC50 in the test with SK-OV-3 is 14.5 nM; in the test on Ramos, 36.3 nM; with K562, 39.9 nM.
In the case of `CC(C)(C)N1CCN(CCOc2ccc(-c3ccc(CC(=O)NCc4ccccc4)nc3)cc2)CC1`, the IC50 in the test with SK-OV-3 was 119 nM; with Ramos, 43.3 nM; in the test with K562 it was above 100 nM.
On the same counts, the results for `CC1CCCN(CCOc2ccc(-c3ccc(CC(=O)NCc4ccccc4)nc3)cc2)C1` (stereo not given) are 57.7 nM, above 100 nM and above 100 nM.
On the same counts, the results for `O=C(Cc1ccc(-c2ccc(OCCCN3CC4CCC(C3)O4)cc2)cn1)NCc1ccccc1` are 7.1 nM, 8.6 nM and 14.6 nM.
